From patent US9512120B2, “Microbicidally active imidazopyridine derivatives” (Syngenta Participations AG, priority 2013, dated 2016)

Legend:
[1] = tested on: Puccinia recondita f. sp. Tritici; test: Puccinia recondita f. sp. tritici / wheat / leaf disc preventative (brown rust); assay type: in vivo; details: foliar, wheat leaf segments cv Kanzler, inoculated 1 day after application, assessed 7-9 days after application, read-out: control of Puccinia recondita f. sp. Tritici (percent disease control compared to untreated)
Procedure, shortened: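 Preventative test: percent disease control relative to untreated leaf segments was assessed 7-9 days post-application. Wheat (cv Kanzler) leaf discs were treated at 200 ppm and spore-inoculated 1 day afterwards. Discs were held at 19° C and 75% relative humidity under a 12/12 h light cycle.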

Pyrenophora teres = Pyrenophora teres / barley / leaf disc preventative (net blotch); assay type: in vivo; details: foliar, barley leaf segments cv Hasso, inoculated two days after application, assessed 5-7 days after application, read-out: control of Pyrenophora teres (disease control compared to untreated)
Procedure, shortened: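 Preventative leaf-disc test: 200 ppm spray, then spore inoculation after two days on barley cv Hasso segments. Incubation 20 °C, 65% relative humidity, 12 h light/12 h dark; efficacy rated against untreated checks at 5-7 days post-application.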

[2] = tested on: Botryotinia fuckeliana (Botrytis cinerea); test: Botryotinia fuckeliana (Botrytis cinerea) / liquid culture (gray mould); assay type: cell-based; details: Vogels broth, 24° C., 3-4 days after application, read-out: control of Botryotinia fuckeliana (inhibition of growth, photometric)
Procedure, shortened: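 Test compound was applied at 200 ppm in DMSO, then Vogels nutrient broth containing cryo-stored B. cinerea conidia was added. Photometric growth-inhibition reading followed after 3-4 days at 24 °C.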

[3] = tested on: Mycosphaerella graminicola (Septoria tritici); test: Mycosphaerella graminicola (Septoria tritici) / liquid culture (Septoria blotch); assay type: cell-based; details: Zymoseptoria tritici, PDB, 24° C., 4-5 days after application, read-out: control of Mycosphaerella graminicola (inhibition of growth, photometric)
Procedure, shortened: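 Growth inhibition was read photometrically after 4–5 days at 24 °C. The test compound was applied at 200 ppm from DMSO solution, then PDB broth seeded with conidia taken straight from cryogenic storage was added.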

Gaeumannomyces graminis = Gaeumannomyces graminis / liquid culture (take-all of cereals); assay type: cell-based; details: PDB, 24° C., 4-5 days after application, read-out: control of Gaeumannomyces graminis (inhibition of growth, photometric)
Procedure, shortened: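 Growth inhibition, measured by photometry 4-5 days post-application at 24 °C, of fungal mycelial fragments in PDB broth. Test compound applied as DMSO solution at 200 ppm.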

[4] = tested on: Thanatephorus cucumeris (Rhizoctonia solani); test: Thanatephorus cucumeris (Rhizoctonia solani) / liquid culture (foot rot, damping-off); assay type: cell-based; details: PDB, 24° C., 3-4 days after application, read-out: control of Thanatephorus cucumeris (inhibition of growth, photometric)
Procedure, shortened: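 At 200 ppm, compounds in DMSO were combined with fresh liquid-culture mycelia in PDB and kept at 24° C; photometric measurement of growth inhibition after 3-4 days.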

[5] = tested on: Monographella nivalis (Microdochium nivale); test: Monographella nivalis (Microdochium nivale) / liquid culture (foot rot cereals); assay type: cell-based; details: PDB, 24° C., 4-5 days after application, read-out: control of Monographella nivalis (inhibition of growth, photometric)
Procedure, shortened: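 Cryostored conidia in potato dextrose broth were added to test compound dispensed from DMSO at 200 ppm. Plates were kept at 24° C, and growth inhibition was read photometrically 4-5 days after application.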

[6] = tested on: Blumeria graminis f. Sp. Tritici (Erysiphe graminis f. Sp. Tritici); test: Blumeria graminis f. sp. tritici / wheat / leaf disc preventative (powdery mildew on wheat); assay type: in vivo; details: foliar, wheat leaf segments cv. Kanzler, inoculated 1 day after application, assessed 6-8 days after application, read-out: control of Blumeria graminis (percent disease control compared to untreated)
Procedure, shortened: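 Wheat leaf segments (cv. Kanzler) on agar sprayed with formulated compound at 200 ppm, inoculated with powdery mildew 1 day later. Held at 20 °C, 60% RH, 24 h dark then 12 h/12 h light; percent disease control versus untreated scored 6-8 days after application.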

CCCn1c(-n2ncnc2N)nc2cnccc21 [Compound 13, 2-(1-propylimidazo[4,5-c]pyridin-2-yl)-1,2,4-triazol-3-amine]
≥ 80%: pest or weed control at 200 ppm [1] | pest or weed control at 200 ppm (Pyrenophora teres) | inhibition at 20 ppm [2] | inhibition at 20 ppm [3] | inhibition at 20 ppm (Gaeumannomyces graminis) | inhibition at 20 ppm [4] | inhibition at 20 ppm [5] | pest or weed control at 200 ppm [6]

CCc1cncc2nc(-n3ncnc3N)n(CC)c12 [Compound 23, 2-(1,7-diethylimidazo[4,5-c]pyridin-2-yl)-1,2,4-triazol-3-amine]
≥ 80%: pest or weed control at 200 ppm [1] | pest or weed control at 200 ppm (Pyrenophora teres) | inhibition at 20 ppm [2] | inhibition at 20 ppm [3] | inhibition at 20 ppm (Gaeumannomyces graminis) | inhibition at 20 ppm [4] | inhibition at 20 ppm [5] | pest or weed control at 200 ppm [6]

CC=Cc1cncc2nc(-n3ncnc3N)n(CC)c12 [Compound 67, 2-(1-ethyl-7-prop-1-enylimidazo[4,5-c]pyridin-2-yl)-1,2,4-triazol-3-amine]
≥ 80%: pest or weed control at 200 ppm [1] | pest or weed control at 200 ppm (Pyrenophora teres) | inhibition at 20 ppm [2] | inhibition at 20 ppm [3] | inhibition at 20 ppm (Gaeumannomyces graminis) | inhibition at 20 ppm [4] | inhibition at 20 ppm [5] | pest or weed control at 200 ppm [6]

CCn1c(-n2ncnc2N)nc2cncc(C(C)=O)c21 [Compound 75, 1-[2-(5-amino-1,2,4-triazol-1-yl)-1-ethylimidazo[4,5-c]pyridin-7-yl]ethanone]
≥ 80%: pest or weed control at 200 ppm [1] | pest or weed control at 200 ppm (Pyrenophora teres) | inhibition at 20 ppm [2] | inhibition at 20 ppm [3] | inhibition at 20 ppm (Gaeumannomyces graminis) | inhibition at 20 ppm [4] | inhibition at 20 ppm [5] | pest or weed control at 200 ppm [6]

CCn1c(-n2ncnc2N)nc2cncc(-c3ccc(F)c(F)c3F)c21 [Compound 86, 2-[1-ethyl-7-(2,3,4-trifluorophenyl)imidazo[4,5-c]pyridin-2-yl]-1,2,4-triazol-3-amine]
≥ 80%: pest or weed control at 200 ppm [1] | pest or weed control at 200 ppm (Pyrenophora teres) | inhibition at 20 ppm [2] | inhibition at 20 ppm [3] | inhibition at 20 ppm (Gaeumannomyces graminis) | inhibition at 20 ppm [4] | inhibition at 20 ppm [5] | pest or weed control at 200 ppm [6]

CCn1c(-n2ncnc2N)nc2cncc(-c3cccnc3F)c21 [Compound 89, 2-[1-ethyl-7-(2-fluoropyridin-3-yl)imidazo[4,5-c]pyridin-2-yl]-1,2,4-triazol-3-amine]
≥ 80%: pest or weed control at 200 ppm [1] | pest or weed control at 200 ppm (Pyrenophora teres) | inhibition at 20 ppm [2] | inhibition at 20 ppm [3] | inhibition at 20 ppm (Gaeumannomyces graminis) | inhibition at 20 ppm [4] | inhibition at 20 ppm [5] | pest or weed control at 200 ppm [6]

CCn1c(-n2ncnc2N)nc2cncc(-c3cccc(Cl)c3F)c21 [Compound 90, 2-[7-(3-chloro-2-fluorophenyl)-1-ethylimidazo[4,5-c]pyridin-2-yl]-1,2,4-triazol-3-amine]
≥ 80%: pest or weed control at 200 ppm [1] | pest or weed control at 200 ppm (Pyrenophora teres) | inhibition at 20 ppm [2] | inhibition at 20 ppm [3] | inhibition at 20 ppm (Gaeumannomyces graminis) | inhibition at 20 ppm [4] | inhibition at 20 ppm [5] | pest or weed control at 200 ppm [6]

CCn1c(-n2ncnc2N)nc2cncc(-c3cccc(OC)c3F)c21 [Compound 93, 2-[1-ethyl-7-(2-fluoro-3-methoxyphenyl)imidazo[4,5-c]pyridin-2-yl]-1,2,4-triazol-3-amine]
≥ 80%: pest or weed control at 200 ppm [1] | pest or weed control at 200 ppm (Pyrenophora teres) | inhibition at 20 ppm [2] | inhibition at 20 ppm [3] | inhibition at 20 ppm (Gaeumannomyces graminis) | inhibition at 20 ppm [4] | inhibition at 20 ppm [5] | pest or weed control at 200 ppm [6]

CCn1c(-n2ncnc2N)nc2cncc(-c3cccc(F)c3F)c21 [Compound 102, 2-[7-(2,3-difluorophenyl)-1-ethylimidazo[4,5-c]pyridin-2-yl]-1,2,4-triazol-3-amine]
≥ 80%: pest or weed control at 200 ppm [1] | pest or weed control at 200 ppm (Pyrenophora teres) | inhibition at 20 ppm [2] | inhibition at 20 ppm [3] | inhibition at 20 ppm (Gaeumannomyces graminis) | inhibition at 20 ppm [4] | inhibition at 20 ppm [5] | pest or weed control at 200 ppm [6]

CCn1c(-n2ncnc2N)nc2cncc(/C(C)=N\OC/C=C(\C)Cl)c21 [Compound 153, 2-[7-[(Z)-N-[(E)-3-chlorobut-2-enoxy]-C-methyl-carbonimidoyl]-1-ethyl-imidazo[4,5-c]pyridin-2-yl]-1,2,4-triazol-3-amine]
≥ 80%: pest or weed control at 200 ppm [1] | pest or weed control at 200 ppm (Pyrenophora teres) | inhibition at 20 ppm [2] | inhibition at 20 ppm [3] | inhibition at 20 ppm (Gaeumannomyces graminis) | inhibition at 20 ppm [4] | inhibition at 20 ppm [5] | pest or weed control at 200 ppm [6]

CCCn1c(-n2ncnc2N)nc2cncc(C)c21 [Compound 173, 2-(7-methyl-1-propyl-imidazo[4,5-c]pyridin-2-yl)-1,2,4-triazol-3-amine]
≥ 80%: pest or weed control at 200 ppm [1] | pest or weed control at 200 ppm (Pyrenophora teres) | inhibition at 20 ppm [2] | inhibition at 20 ppm [3] | inhibition at 20 ppm (Gaeumannomyces graminis) | inhibition at 20 ppm [4] | inhibition at 20 ppm [5] | pest or weed control at 200 ppm [6]

CCCn1c(-n2ncnc2N)nc2cncc(CC)c21 [Compound 174, 2-(7-ethyl-1-propyl-imidazo[4,5-c]pyridin-2-yl)-1,2,4-triazol-3-amine]
≥ 80%: pest or weed control at 200 ppm [1] | pest or weed control at 200 ppm (Pyrenophora teres) | inhibition at 20 ppm [2] | inhibition at 20 ppm [3] | inhibition at 20 ppm (Gaeumannomyces graminis) | inhibition at 20 ppm [4] | inhibition at 20 ppm [5] | pest or weed control at 200 ppm [6]
